Data from PubChem BioAssay (NCI).
Several values for one entry are separate records, joined by “and”; a condition that tells them apart may be missing. Equal values may be shown once.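 The compound was tested at five concentrations on cells cultured in 96-well plates, with a 48-hour exposure period. GI50: concentration for 50% inhibition of growth. The concentration for full growth arrest is given as TGI.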 Where a SMILES comes first, the peptide text is derived from it. [ ]: non-standard residue; d: D form. The star is where a group is joined. Bn2Val = CC(C)[C@@H](C(=O)*)N(Cc1ccccc1)Cc1ccccc1; NH(3,4-diMeO-benzyl) = COc1ccc(CN*)cc1OC; NMeV = CN[C@H](C(=O)O)C(C)C; dNMeA = CN[C@H](C)C(=O)O

Experiments:
Assay in all cases: NCI anticancer screen, dose series, 48 h
OVCAR-5 ovarian = test system: OVCAR-5 ovarian
SW-620 colon = test system: SW-620 colon
SF-295 CNS = test system: SF-295 CNS
OVCAR-8 ovarian = test system: OVCAR-8 ovarian
UO-31 renal = test system: UO-31 renal
UACC-62 melanoma = test system: UACC-62 melanoma
SF-539 CNS = test system: SF-539 CNS
EKVX NSCLC = test system: EKVX NSCLC
OVCAR-3 ovarian = test system: OVCAR-3 ovarian
HT29 colon = test system: HT29 colon
RPMI-8226 leukemia = test system: RPMI-8226 leukemia
MDA-MB-231 breast = test system: MDA-MB-231 breast
RXF 393 renal = test system: RXF 393 renal
MDA-N = test system: MDA-N
NCI-H460 lung = test system: NCI-H460 lung
DU-145 prostate = test system: DU-145 prostate
BT-549 breast = test system: BT-549 breast
NCI-H226 lung = test system: NCI-H226 lung
NCI/ADR-RES ovarian = test system: NCI/ADR-RES ovarian
HOP-62 NSCLC = test system: HOP-62 NSCLC
K-562 leukemia = test system: K-562 leukemia
U251 CNS = test system: U251 CNS
TK-10 renal = test system: TK-10 renal
SF-268 CNS = test system: SF-268 CNS
PC-3 prostate = test system: PC-3 prostate
SK-MEL-5 melanoma = test system: SK-MEL-5 melanoma
NCI-H23 lung = test system: NCI-H23 lung
COLO 205 colon = test system: COLO 205 colon
MOLT-4 leukemia = test system: MOLT-4 leukemia
KM12 colon = test system: KM12 colon
ACHN renal = test system: ACHN renal
UACC-257 melanoma = test system: UACC-257 melanoma
A549 NSCLC = test system: A549 NSCLC
HCT-15 colon = test system: HCT-15 colon
MALME-3M melanoma = test system: MALME-3M melanoma
CCRF-CEM leukemia = test system: CCRF-CEM leukemia
LOX IMVI melanoma = test system: LOX IMVI melanoma
MDA-MB-435 = test system: MDA-MB-435
CAKI-1 renal = test system: CAKI-1 renal
MCF7 breast = test system: MCF7 breast
SK-MEL-28 melanoma = test system: SK-MEL-28 melanoma
OVCAR-4 ovarian = test system: OVCAR-4 ovarian
SN12C renal = test system: SN12C renal
M14 melanoma = test system: M14 melanoma
HCC-2998 colon = test system: HCC-2998 colon
SK-MEL-2 melanoma = test system: SK-MEL-2 melanoma
SK-OV-3 ovarian = test system: SK-OV-3 ovarian
NCI-H522 lung = test system: NCI-H522 lung
SNB-19 CNS = test system: SNB-19 CNS
A498 renal = test system: A498 renal
HOP-92 NSCLC = test system: HOP-92 NSCLC
IGROV1 ovarian = test system: IGROV1 ovarian
SNB-75 CNS = test system: SNB-75 CNS
T-47D breast = test system: T-47D breast
HCT-116 colon = test system: HCT-116 colon
HS 578T breast = test system: HS 578T breast
786-0 renal = test system: 786-0 renal
HL-60(TB) leukemia = test system: HL-60(TB) leukemia

COc1ccc(CNC(=O)[C@@H](C)N(C)C(=O)[C@@H]2CCCN2C(=O)[C@H](C(C)C)N(C)C(=O)[C@@H](NC(=O)[C@H](C(C)C)N(Cc2ccccc2)Cc2ccccc2)C(C)C)cc1OC (Bn2Val-V[NMeV]P[dNMeA]-{NH(3,4-diMeO-benzyl)})
GI50 (OVCAR-5 ovarian): 2.79 µM
TGI (OVCAR-5 ovarian): 16.6 µM and 9.77 µM
TGI (SW-620 colon): 41.7 µM and 38 µM
GI50 (SF-295 CNS): 9.29 µM
TGI (SF-295 CNS): 13.8 µM and 23 µM
GI50 (OVCAR-8 ovarian): 16.3 µM
TGI (OVCAR-8 ovarian): 50 µM and > 100 µM
TGI (UO-31 renal): > 100 µM
GI50 (UACC-62 melanoma): 13.5 µM
TGI (UACC-62 melanoma): 14 µM and 27.2 µM
GI50 (SF-539 CNS): 5.23 µM
TGI (SF-539 CNS): 16.6 µM and 17.8 µM
GI50 (EKVX NSCLC): 10.4 µM
TGI (EKVX NSCLC): 50 µM and 49.1 µM
GI50 (OVCAR-3 ovarian): 10 µM
TGI (OVCAR-3 ovarian): 14.6 µM and 24.7 µM
GI50 (HT29 colon): 3.08 µM
TGI (HT29 colon): 12.2 µM and 10.6 µM
TGI (RPMI-8226 leukemia): 20 µM and 18.6 µM
GI50 (MDA-MB-231 breast): 10.8 µM
TGI (MDA-MB-231 breast): 18.8 µM and 22.7 µM
GI50 (RXF 393 renal): 3.61 µM
TGI (RXF 393 renal): 12.8 µM and 15 µM
GI50 (MDA-N): 11.7 µM
TGI (MDA-N): 20.2 µM and 24.9 µM
GI50 (NCI-H460 lung): 8.21 µM
TGI (NCI-H460 lung): 50 µM and 37.9 µM
TGI (DU-145 prostate): 50 µM and 42.3 µM
GI50 (BT-549 breast): 9.43 µM
TGI (BT-549 breast): 15.1 µM and 27.1 µM
GI50 (NCI-H226 lung): 13.7 µM
TGI (NCI-H226 lung): 15.3 µM and 31.3 µM
GI50 (NCI/ADR-RES ovarian): 6.35 µM
TGI (NCI/ADR-RES ovarian): 32.9 µM and 40.1 µM
GI50 (HOP-62 NSCLC): 14.7 µM
TGI (HOP-62 NSCLC): 16.5 µM and 33.4 µM
GI50 (K-562 leukemia): 6.52 µM
TGI (K-562 leukemia): 50 µM and > 100 µM
TGI (U251 CNS): 22.1 µM and 20 µM
TGI (TK-10 renal): 50 µM and 61.6 µM
GI50 (SF-268 CNS): 17.6 µM
TGI (SF-268 CNS): 14.8 µM and > 100 µM
GI50 (PC-3 prostate): 5.61 µM
TGI (PC-3 prostate): 26 µM and 24.5 µM
TGI (SK-MEL-5 melanoma): 12.1 µM
TGI (NCI-H23 lung): 26.6 µM and 42.4 µM
GI50 (COLO 205 colon): 5.86 µM
TGI (COLO 205 colon): 19.8 µM and 35.9 µM
GI50 (MOLT-4 leukemia): 0.475 µM
TGI (MOLT-4 leukemia): 23.9 µM and 11.7 µM
TGI (KM12 colon): 30 µM and 27.4 µM
GI50 (ACHN renal): 8.21 µM
TGI (ACHN renal): 14.9 µM and 23.9 µM
GI50 (UACC-257 melanoma): 10.2 µM
TGI (UACC-257 melanoma): 21.8 µM and 23.5 µM
GI50 (A549 NSCLC): 53.3 µM
TGI (A549 NSCLC): 50 µM and > 100 µM
GI50 (HCT-15 colon): 5.98 µM
TGI (HCT-15 colon): 21.5 µM and 28.8 µM
GI50 (MALME-3M melanoma): 14.8 µM
TGI (MALME-3M melanoma): 15.6 µM and 31.9 µM
GI50 (CCRF-CEM leukemia): 0.756 µM
TGI (CCRF-CEM leukemia): 16.9 µM and 44.2 µM
GI50 (LOX IMVI melanoma): 6.35 µM
TGI (LOX IMVI melanoma): 15.4 µM and 26.2 µM
GI50 (MDA-MB-435): 11.1 µM
TGI (MDA-MB-435): 19.7 µM and 24.1 µM
GI50 (CAKI-1 renal): 12.7 µM
TGI (CAKI-1 renal): 47 µM and 30.5 µM
TGI (MCF7 breast): 25.3 µM
GI50 (SK-MEL-28 melanoma): 13.5 µM
TGI (SK-MEL-28 melanoma): 17.6 µM and 28.3 µM
GI50 (OVCAR-4 ovarian): 7.54 µM
TGI (OVCAR-4 ovarian): 50 µM and 42.2 µM
GI50 (SN12C renal): 10 µM
TGI (SN12C renal): 17.2 µM and 22.2 µM
GI50 (M14 melanoma): 63.2 µM
TGI (M14 melanoma): 16.9 µM and > 100 µM
TGI (HCC-2998 colon): 21.2 µM
GI50 (SK-MEL-2 melanoma): 4.38 µM
TGI (SK-MEL-2 melanoma): 15.1 µM and 15 µM
GI50 (SK-OV-3 ovarian): 23.6 µM
TGI (SK-OV-3 ovarian): 36.3 µM and 96.7 µM
GI50 (NCI-H522 lung): 9.05 µM
TGI (NCI-H522 lung): 10.7 µM and 45.1 µM
GI50 (SNB-19 CNS): > 100 µM
TGI (SNB-19 CNS): 23.9 µM and > 100 µM
TGI (A498 renal): 23.7 µM
GI50 (HOP-92 NSCLC): 10.2 µM
TGI (HOP-92 NSCLC): 16.9 µM and 23.4 µM
GI50 (IGROV1 ovarian): 11.1 µM
TGI (IGROV1 ovarian): 13.6 µM and 28.3 µM
GI50 (SNB-75 CNS): 3.54 µM
TGI (SNB-75 CNS): 16.6 µM and 15.9 µM
TGI (T-47D breast): 50 µM and 81.1 µM
GI50 (HCT-116 colon): 4.87 µM
TGI (HCT-116 colon): 14.4 µM and 17.7 µM
GI50 (HS 578T breast): 19.5 µM
GI50 (786-0 renal): 11.4 µM
TGI (786-0 renal): 21.3 µM and 28.3 µM
TGI (HL-60(TB) leukemia): 11 µM and 9.45 µM
